In ChEMBL document CHEMBL6103565, “Current strategies in design and synthesis of antifungals hybrid and chimeric diazine derivatives” (Bioorg Med Chem, 2025):
Converted amounts (≈) assume the structure as drawn.

These compounds were tested on Candida albicans (assay: Antifungal activity against Candida albicans MTCC 3018 assessed as inhibition of fungal growth incubated for 24 hrs). Conditions: not given.
Assay type: functional
In the case of `O=[N+]([O-])c1ccc(-c2nnc3c4ccc(C(F)(F)F)nc4nc(-c4ccco4)n23)cc1`, the MIC is reported as 3.9 µg/mL (≈ 9.15 µM). `Fc1ccc(-c2nnc3c4ccc(C(F)(F)F)nc4nc(-c4ccccc4)n23)c(Cl)c1` gave an MIC of 3.9 µg/mL (≈ 8.79 µM). In the case of `Clc1ccc(COC(Cn2ccnc2)c2ccc(Cl)cc2Cl)c(Cl)c1` (configuration not stated) [MICONAZOLE], the MIC is reported as 0.39 µg/mL (≈ 0.937 µM). For `Fc1ccc(-c2nnc3c4ccc(C(F)(F)F)nc4nc(-c4ccco4)n23)c(Cl)c1`, the MIC was 3.9 µg/mL (≈ 8.99 µM).

Each compound was assayed on Candida parapsilosis (assay: Antifungal activity against Candida parapsilosis MTCC 1744 assessed as inhibition of fungal growth incubated for 24 hrs). Conditions: Lodderomyces parapsilosis.
Assay type: functional
In the case of `O=[N+]([O-])c1ccc(-c2nnc3c4ccc(C(F)(F)F)nc4nc(-c4ccco4)n23)cc1`, the MIC is reported as 3.9 µg/mL (≈ 9.15 µM). In the case of `Fc1ccc(-c2nnc3c4ccc(C(F)(F)F)nc4nc(-c4ccccc4)n23)c(Cl)c1`, the MIC is reported as 3.9 µg/mL (≈ 8.79 µM). Work on `Clc1ccc(COC(Cn2ccnc2)c2ccc(Cl)cc2Cl)c(Cl)c1` (configuration not stated) [MICONAZOLE] yielded an MIC of 0.39 µg/mL (≈ 0.937 µM). `Fc1ccc(-c2nnc3c4ccc(C(F)(F)F)nc4nc(-c4ccco4)n23)c(Cl)c1` gave an MIC of 3.9 µg/mL (≈ 8.99 µM).

Each compound was assayed on Candida albicans (assay: Antifungal activity against Candida albicans assessed as diameter of zone inhibition). Conditions: not given.
Assay type: functional
With `Cc1cccc(-c2nc3ccccc3nc2N2CCN(C)CC2)c1` the “inhibition zone (IZ)” value was 14 mm. For `C/C=C/N1CCN(c2nc3ccccc3nc2-c2cccc(C)c2)CC1`, the “inhibition zone (IZ)” value was 14 mm. With `Clc1ccc(C(Cn2ccnc2)OCc2csc3c(Cl)cccc23)c(Cl)c1` (configuration not stated) [SERTACONAZOLE] the “inhibition zone (IZ)” value was 20 mm. In the case of `C=CCNN1CCN(c2nc3ccccc3nc2-c2cccc(C)c2)CC1`, the “inhibition zone (IZ)” value is reported as 13 mm.

These compounds were tested on Candida albicans (assay: Antifungal activity against Candida albicans assessed as reduction in fungal growth incubated for 48 hrs by broth micro-dilution method). Conditions: not given.
Assay type: functional
`Cc1ccc(S(=O)(=O)Nc2nc(/N=N/c3c(N)nn4c(C)cc(=O)[nH]c34)cs2)cc1` was tested, and the MIC was 3.12 µg/mL (≈ 7.02 µM). With `Cc1ccc(S(=O)(=O)Nc2nc(/N=N/c3c(N)nn4c(-c5ccc(Cl)cc5)c(C#N)c(N)nc34)cs2)cc1` the MIC was 100 µg/mL (≈ 177 µM). `Cc1ccc(S(=O)(=O)Nc2nc(/N=N/c3c(N)nn4c(C)cc(C)nc34)cs2)cc1` was tested, and the MIC was 50 µg/mL (≈ 113 µM). For `Cc1ccc(S(=O)(=O)Nc2nc(/N=N/c3c(N)nn4c(N)c(C#N)nnc34)cs2)cc1`, the MIC was 6.25 µg/mL (≈ 13.7 µM). With `C[C@@H]1C[C@@H]([C@H](O)CC2CC(=O)NC(=O)C2)C(=O)[C@@H](C)C1` [CYCLOHEXIMIDE] the MIC was 3.12 µg/mL (≈ 11.1 µM). With `Cc1ccc(S(=O)(=O)Nc2nc(/N=N/c3c(N)nn4c(-c5ccc([N+](=O)[O-])cc5)c(C#N)c(N)nc34)cs2)cc1` the MIC was 25 µg/mL (≈ 43.4 µM).

What follows are compounds tested on Candida albicans (assay: Antifungal activity against Candida albicans MTCC 7315 assessed as inhibition of fungal growth incubated for 24 hrs). Conditions: not given.
Assay type: functional
`O=[N+]([O-])c1ccc(-c2nnc3c4ccc(C(F)(F)F)nc4nc(-c4ccco4)n23)cc1` was tested, and the MIC was 3.9 µg/mL (≈ 9.15 µM). `Fc1ccc(-c2nnc3c4ccc(C(F)(F)F)nc4nc(-c4ccccc4)n23)c(Cl)c1` gave an MIC of 3.9 µg/mL (≈ 8.79 µM). Work on `Clc1ccc(COC(Cn2ccnc2)c2ccc(Cl)cc2Cl)c(Cl)c1` (configuration not stated) [MICONAZOLE] yielded an MIC of 0.39 µg/mL (≈ 0.937 µM). With `Fc1ccc(-c2nnc3c4ccc(C(F)(F)F)nc4nc(-c4ccco4)n23)c(Cl)c1` the MIC was 3.9 µg/mL (≈ 8.99 µM).

The compounds below were run on Candida albicans (assay: Antifungal activity against Candida albicans MTCC 3017 assessed as inhibition of fungal growth incubated for 24 hrs). Conditions: not given.
Assay type: functional
Work on `O=[N+]([O-])c1ccc(-c2nnc3c4ccc(C(F)(F)F)nc4nc(-c4ccco4)n23)cc1` yielded an MIC of 3.9 µg/mL (≈ 9.15 µM). `Fc1ccc(-c2nnc3c4ccc(C(F)(F)F)nc4nc(-c4ccccc4)n23)c(Cl)c1` showed an MIC of 3.9 µg/mL (≈ 8.79 µM). Work on `Clc1ccc(COC(Cn2ccnc2)c2ccc(Cl)cc2Cl)c(Cl)c1` (configuration not stated) [MICONAZOLE] yielded an MIC of 0.39 µg/mL (≈ 0.937 µM). `Fc1ccc(-c2nnc3c4ccc(C(F)(F)F)nc4nc(-c4ccco4)n23)c(Cl)c1` was tested, and the MIC was 3.9 µg/mL (≈ 8.99 µM).

What follows are compounds tested on Candida tropicalis (assay: Antifungal activity against Candida tropicalis assessed as zone of inhibition by disc diffusion method). Conditions: not given.
Assay type: functional
`CC1=NN(c2ccccc2)C2N=C3SCCN3C(c3ccc(O)cc3)C12` (configuration not stated) was tested, and the “inhibition zone (IZ)” value was 26 mm.

What follows are compounds tested on Aspergillus niger (assay: Antifungal activity against Aspergillus niger assessed as zone of inhibition by disc diffusion method). Conditions: not given.
Assay type: functional
`CC1=NN(c2ccccc2)C2N=C3SCCN3C(c3ccc(O)cc3)C12` (configuration not stated) was tested, and the “inhibition zone (IZ)” value was 24 mm.

The compounds below were run on Candida albicans (assay: Antifungal activity against Candida albicans MTCC 1637 assessed as inhibition of fungal growth incubated for 24 hrs). Conditions: not given.
Assay type: functional
`O=[N+]([O-])c1ccc(-c2nnc3c4ccc(C(F)(F)F)nc4nc(-c4ccco4)n23)cc1` showed an MIC of 3.9 µg/mL (≈ 9.15 µM). Work on `Fc1ccc(-c2nnc3c4ccc(C(F)(F)F)nc4nc(-c4ccccc4)n23)c(Cl)c1` yielded an MIC of 3.9 µg/mL (≈ 8.79 µM). `Clc1ccc(COC(Cn2ccnc2)c2ccc(Cl)cc2Cl)c(Cl)c1` (configuration not stated) [MICONAZOLE] showed an MIC of 0.39 µg/mL (≈ 0.937 µM). `Fc1ccc(-c2nnc3c4ccc(C(F)(F)F)nc4nc(-c4ccco4)n23)c(Cl)c1` showed an MIC of 3.9 µg/mL (≈ 8.99 µM).

These compounds were tested on Aspergillus niger (assay: Antifungal activity against Aspergillus niger assessed as diameter of zone inhibition). Conditions: not given.
Assay type: functional
With `Cc1cccc(-c2nc3ccccc3nc2N2CCN(C)CC2)c1` the “inhibition zone (IZ)” value was 16 mm. `C/C=C/N1CCN(c2nc3ccccc3nc2-c2cccc(C)c2)CC1` was tested, and the “inhibition zone (IZ)” value was 15 mm. In the case of `Clc1ccc(C(Cn2ccnc2)OCc2csc3c(Cl)cccc23)c(Cl)c1` (configuration not stated) [SERTACONAZOLE], the “inhibition zone (IZ)” value is reported as 24 mm. `C=CCNN1CCN(c2nc3ccccc3nc2-c2cccc(C)c2)CC1` was tested, and the “inhibition zone (IZ)” value was 14 mm.

Each compound was assayed on Pichia kudriavzevii (assay: Antifungal activity against Pichia kudriavzevii MTCC 3020 assessed as inhibition of fungal growth incubated for 24 hrs). Conditions: not given.
Assay type: functional
Compound `O=[N+]([O-])c1ccc(-c2nnc3c4ccc(C(F)(F)F)nc4nc(-c4ccco4)n23)cc1` has an MIC of 3.9 µg/mL (≈ 9.15 µM). `Fc1ccc(-c2nnc3c4ccc(C(F)(F)F)nc4nc(-c4ccccc4)n23)c(Cl)c1` was tested, and the MIC was 3.9 µg/mL (≈ 8.79 µM). For `Clc1ccc(COC(Cn2ccnc2)c2ccc(Cl)cc2Cl)c(Cl)c1` (configuration not stated) [MICONAZOLE], the MIC was 0.39 µg/mL (≈ 0.937 µM). `Fc1ccc(-c2nnc3c4ccc(C(F)(F)F)nc4nc(-c4ccco4)n23)c(Cl)c1` showed an MIC of 3.9 µg/mL (≈ 8.99 µM).

These compounds were tested on Candida albicans (assay: Antifungal activity against Candida albicans MTCC 227 assessed as inhibition of fungal growth incubated for 24 hrs). Conditions: not given.
Assay type: functional
`O=[N+]([O-])c1ccc(-c2nnc3c4ccc(C(F)(F)F)nc4nc(-c4ccco4)n23)cc1` showed an MIC of 3.9 µg/mL (≈ 9.15 µM). Compound `Fc1ccc(-c2nnc3c4ccc(C(F)(F)F)nc4nc(-c4ccccc4)n23)c(Cl)c1` has an MIC of 3.9 µg/mL (≈ 8.79 µM). `Clc1ccc(COC(Cn2ccnc2)c2ccc(Cl)cc2Cl)c(Cl)c1` (configuration not stated) [MICONAZOLE] was tested, and the MIC was 0.39 µg/mL (≈ 0.937 µM). Work on `Fc1ccc(-c2nnc3c4ccc(C(F)(F)F)nc4nc(-c4ccco4)n23)c(Cl)c1` yielded an MIC of 3.9 µg/mL (≈ 8.99 µM).

What follows are compounds tested on Candida albicans (assay: Antifungal activity against Candida albicans MTCC 4748 assessed as inhibition of fungal growth incubated for 24 hrs). Conditions: not given.
Assay type: functional
Work on `O=[N+]([O-])c1ccc(-c2nnc3c4ccc(C(F)(F)F)nc4nc(-c4ccco4)n23)cc1` yielded an MIC of 3.9 µg/mL (≈ 9.15 µM). Compound `Fc1ccc(-c2nnc3c4ccc(C(F)(F)F)nc4nc(-c4ccccc4)n23)c(Cl)c1` has an MIC of 3.9 µg/mL (≈ 8.79 µM). With `Clc1ccc(COC(Cn2ccnc2)c2ccc(Cl)cc2Cl)c(Cl)c1` (configuration not stated) [MICONAZOLE] the MIC was 0.39 µg/mL (≈ 0.937 µM). `Fc1ccc(-c2nnc3c4ccc(C(F)(F)F)nc4nc(-c4ccco4)n23)c(Cl)c1` gave an MIC of 3.9 µg/mL (≈ 8.99 µM).

What follows are compounds tested on Nakaseomyces glabratus (assay: Antifungal activity against Candida glabrata MTCC 3019 assessed as inhibition of fungal growth incubated for 24 hrs). Conditions: not given.
Assay type: functional
`O=[N+]([O-])c1ccc(-c2nnc3c4ccc(C(F)(F)F)nc4nc(-c4ccco4)n23)cc1` gave an MIC of 3.9 µg/mL (≈ 9.15 µM). Compound `Fc1ccc(-c2nnc3c4ccc(C(F)(F)F)nc4nc(-c4ccccc4)n23)c(Cl)c1` has an MIC of 3.9 µg/mL (≈ 8.79 µM). `Clc1ccc(COC(Cn2ccnc2)c2ccc(Cl)cc2Cl)c(Cl)c1` (configuration not stated) [MICONAZOLE] gave an MIC of 0.39 µg/mL (≈ 0.937 µM). `Fc1ccc(-c2nnc3c4ccc(C(F)(F)F)nc4nc(-c4ccco4)n23)c(Cl)c1` showed an MIC of 3.9 µg/mL (≈ 8.99 µM).
